Test results taken from publication PMC2736638 (Journal of medicinal chemistry, 2009).
Where “and” joins values, the source holds several entries; their conditions need not be identical. Equal values may be shown once. Entries after “also recorded” stand apart in the source; their conditions may differ. One block for each compound: values may come before it.

What was measured:
HIV-1NL4-3 = HIV-1NL4-3 replication inhibition assay in MT-4 lymphocytes; format: cell-based; conditions: HIV-1NL4-3, MT-4 cells
Solubility = format: physicochemical; conditions: qualitative
HIV-1IIIB = HIV-1IIIB replication inhibition assay in MT-2 lymphocytes; format: cell-based; conditions: for TI = CC50/EC50: HIV-1IIIB, MT-2 cells
[1] = incubation time 0 min; 3 μM, 0.2 mg/mL human liver microsome, NADPH
in vitro = conditions: human, microsomes, pH 7.4

Compound: C=C(C)[C@@H]1CC[C@]2(C(=O)NCCCCCCCC(=O)N[C@@H](CC(C)C)[C@H](O)CC(=O)O)CC[C@]3(C)[C@H](CC[C@@H]4[C@@]5(C)CC[C@H](O)C(C)(C)[C@@H]5CC[C@]43C)[C@@H]12 [Compound 3b, (3R,4S)-N’-[N-[3β-hydroxylup-20(29)-en-28-oyl]-8-aminooctanoyl]-4-amino-3-hydroxy-6-methylheptanoic acid]
TI = CC50/EC50 (HIV-1NL4-3): > 112.4

solubility (Solubility): increase in the derivative’s solubility
Compound: C=C(COCCN1CCOCC1)[C@@H]1CC[C@]2(C(=O)NCCCCCCCC(=O)O)CC[C@]3(C)[C@H](CC[C@@H]4[C@@]5(C)CC[C@H](O)C(C)(C)[C@@H]5CC[C@]43C)[C@@H]12 [Compound 20, N-[3β-Hydroxy-30-(2′-morpholinoethoxy)-lup-20(29)-en-28-oyl]-8-aminooctanoic acid]

Compound: C=C(COCCN1CCOCC1)[C@@H]1CC[C@]2(C(=O)NCCCCCCCC(=O)NC)CC[C@]3(C)[C@H](CC[C@@H]4[C@@]5(C)CC[C@H](O)C(C)(C)[C@@H]5CC[C@]43C)[C@@H]12 [Compound 21]
solubility (Solubility): improved solubility; also recorded: good solubility

Compound: C=C(C)[C@@H]1CC[C@]2(C(=O)N[C@@H](CC(C)C)C(=O)O)CC[C@]3(C)[C@H](CC[C@@H]4[C@@]5(C)CC[C@H](O)C(C)(C)[C@@H]5CC[C@]43C)[C@@H]12 [Compound 22, N-[3β-Hydroxy-lup-20(29)-en-28-oyl]-leucine]
EC50: concentration that inhibits HIV-1IIIB replication by 50% (HIV-1IIIB; HIV-1IIIB infected MT-2 cells, averages of at least three experiments): did not exhibit antiviral replication activity

Persentage of Remaining Parent Compounds (X±SD)% [1]: 100.0%
Compound: C=C(C)[C@@H]1CC[C@]2(C(=O)NCCCCCCCC(=O)O)CC[C@]3(C)[C@H](CC[C@@H]4[C@@]5(C)CC[C@H](O)C(C)(C)[C@@H]5CC[C@]43C)[C@@H]12 [Compound 23, N-[3β-Hydroxy-lup-20(29)-en-28-oyl]-8-aminooctanoic acid]

Compound: C=C(CBr)[C@@H]1CC[C@]2(C(=O)N[C@@H](CC(C)C)C(=O)O)CC[C@]3(C)[C@H](CC[C@@H]4[C@@]5(C)CC[C@H](OC(=O)CC(C)(C)C(=O)O)C(C)(C)[C@@H]5CC[C@]43C)[C@@H]12 [Compound 30, N-[3β-O-(3′,3′-Dimethylsuccinyl)-30-bromo-lup-20(29)-en-28-oyl]-leucine]
TI = CC50/EC50 (HIV-1IIIB): 3.0×10^3 and 3,022

Compound: C=C(C)[C@@H]1CC[C@]2(C(=O)N3CCC(CCCC(=O)O)CC3)CC[C@]3(C)[C@H](CC[C@@H]4[C@@]5(C)CC[C@H](O)C(C)(C)[C@@H]5CC[C@]43C)[C@@H]12 [Compound 38, N-[3β-Hydroxy-lup-20(29)-en-28-oyl]-4-piperidine butyric acid]
half-life (in vitro): ~125 min | Persentage of Remaining Parent Compounds (X±SD)% [1]: 100.0%

Compound: C=C(C)[C@@H]1CC[C@]2(C(=O)N3CCC(CCCC(=O)O)CC3)CC[C@]3(C)[C@H](CC[C@@H]4[C@@]5(C)CC[C@H](OC(=O)CC(C)(C)C(=O)O)C(C)(C)[C@@H]5CC[C@]43C)[C@@H]12 [Compound 39, N-[3β-O-(3′,3′-Dimethylsuccinyl)-lup-20(29)-en-28-oyl]-4-piperidine butyric acid]
TI = CC50/EC50 (HIV-1IIIB): 1.4 ×10^3 and 1,389

Compound: C=C(C)[C@@H]1CC[C@]2(C(=O)N3CCC(CCCC(=O)NC)CC3)CC[C@]3(C)[C@H](CC[C@@H]4[C@@]5(C)CC[C@H](OC(=O)CC(C)(C)C(=O)O)C(C)(C)[C@@H]5CC[C@]43C)[C@@H]12 [Compound 45, N’-[N-[3β-O-(3′,3′-Dimethylsuccinyl)-lup-20(29)-en-28-oyl]-4-piperidine-butanoyl]-aminomethane]
TI = CC50/EC50 (HIV-1NL4-3): > 41.7

Compound: C=C(C)[C@@H]1CC[C@]2(C(=O)N3CCC(CCCC(=O)N4CCOCC4)CC3)CC[C@]3(C)[C@H](CC[C@@H]4[C@@]5(C)CC[C@H](OC(=O)CC(C)(C)C(=O)O)C(C)(C)[C@@H]5CC[C@]43C)[C@@H]12 [Compound 46, N’-[N-[3β-O-(3′,3′-Dimethylsuccinyl)-lup-20(29)-en-28-oyl]-4-piperidine-butanoyl]-morpholine]
TI = CC50/EC50 (HIV-1IIIB): 1,748

Compound: C=C(C)[C@@H]1CC[C@]2(C(=O)N3CCC(CCCC(=O)NCCN4CCOCC4)CC3)CC[C@]3(C)[C@H](CC[C@@H]4[C@@]5(C)CC[C@H](OC(=O)CC(C)(C)C(=O)O)C(C)(C)[C@@H]5CC[C@]43C)[C@@H]12 [Compound 47, N’-[N-[3β-O-(3′,3′-Dimethylsuccinyl)-lup-20(29)-en-28-oyl]-4-piperidine-butanoyl]-2-aminoethylmorpholine]
TI = CC50/EC50 (HIV-1IIIB): 2,473

Compound: C=C(C)[C@@H]1CC[C@]2(C(=O)N3CCC(CCCC(=O)NCCCN4CCOCC4)CC3)CC[C@]3(C)[C@H](CC[C@@H]4[C@@]5(C)CC[C@H](OC(=O)CC(C)(C)C(=O)O)C(C)(C)[C@@H]5CC[C@]43C)[C@@H]12 [Compound 48, N’-[N-[3β-O-(3′,3′-Dimethylsuccinyl)-lup-20(29)-en-28-oyl]-4-piperidine-butanoyl]-3-aminopropylmorpholine]
TI = CC50/EC50 (HIV-1IIIB): 3,087
